Measurements: PubChem BioAssay (NCI)
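Interpolation was linear, between the two tested concentrations surrounding the appropriate level; five concentrations were tested over 48 hours in 96-well plates. GI50 = concentration required for 50% inhibition of growth. TGI: concentration producing complete growth inhibition.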

Assays:
Test in all cases: NCI anticancer screen, dose series, 48 h
[1] = test system: M14 melanoma
[2] = test system: CCRF-CEM leukemia
[3] = test system: IGROV1 ovarian
[4] = test system: HL-60(TB) leukemia
[5] = test system: COLO 205 colon
[6] = test system: NCI-H522 lung
[7] = test system: MOLT-4 leukemia
[8] = test system: NCI-H226 lung
[9] = test system: PC-3 prostate
[10] = test system: EKVX NSCLC

## CCN(CC)CCN(CC)CC.CCN(CC)CCN(CC)CC.[Cu+2].[Cu+2].[O-][Cl+3]([O-])([O-])[O-].[OH3+].[OH3+]
[1]
  GI50: > 100 µM
  TGI: > 100 µM
[2]
  GI50: 37.6 µM
  TGI: > 100 µM
[3]
  GI50: 29.4 µM
  TGI: 87.9 µM
[4]
  GI50: 30.8 µM
  TGI: > 100 µM
[5]
  GI50: > 100 µM
  TGI: > 100 µM
[6]
  GI50: 25.6 µM
  TGI: 55.2 µM
[7]
  GI50: 91.4 µM
  TGI: > 100 µM

## CC1(C)N=C(N)N=C(N)N1c1ccc(CNC(=O)Nc2ccc(S(=O)(=O)F)c(Cl)c2)c(Cl)c1
[1]
  GI50: 1.24 µM
  TGI: > 100 µM
[8]
  GI50: 13.7 µM
  TGI: > 100 µM
[2]
  GI50: 0.477 µM
  TGI: > 100 µM
[3]
  GI50: 0.0805 µM
  TGI: > 100 µM
[4]
  GI50: 0.377 µM
  TGI: > 100 µM
[5]
  GI50: 0.867 µM
  TGI: > 100 µM
[6]
  GI50: 0.624 µM
  TGI: 40.2 µM
[9]
  GI50: 0.0677 µM
  TGI: > 100 µM
[7]
  GI50: 0.954 µM
  TGI: > 100 µM

## O=[N+]([O-])c1ccc(-c2csc(N=Nc3c(O)[nH]c4ccccc34)n2)cc1
[1]
  TGI: 36.4 µM
[8]
  TGI: > 100 µM
[3]
  TGI: 57.9 µM
[5]
  TGI: > 100 µM
[9]
  TGI: 86.2 µM
[7]
  TGI: > 100 µM
[10]
  TGI: > 100 µM

## Nc1nc(=O)n(C2CCC(CO)O2)cc1F (stereo not drawn)
[1]
  TGI: > 100 µM
[8]
  TGI: > 100 µM
[2]
  TGI: > 100 µM
[4]
  TGI: > 100 µM
[5]
  TGI: > 100 µM
[6]
  TGI: > 100 µM
[7]
  TGI: > 100 µM
[10]
  TGI: > 100 µM

## CC(Oc1ccc2c(-c3ccc(Cl)cc3)cc(=O)oc2c1)C(=O)O (stereo not drawn)
[1]
  TGI: > 100 µM
[8]
  TGI: > 100 µM
[2]
  TGI: > 100 µM
[3]
  TGI: > 100 µM
[4]
  TGI: > 100 µM
[5]
  TGI: > 100 µM
[6]
  TGI: > 100 µM
[7]
  TGI: > 100 µM
[10]
  TGI: > 100 µM

## CC1=C(C#N)C23C(=O)N(c4ccccc4)C(=O)C2=C(O)C=CC3(O)N1Cc1ccc(Cl)cc1Cl (stereo not drawn)
[1]
  GI50: 3.43 µM
  TGI: 16.1 µM
[8]
  GI50: 2.54 µM
  TGI: 9.96 µM
[2]
  GI50: 1.59 µM
  TGI: 4.28 µM
[3]
  GI50: 2.86 µM
  TGI: 7.19 µM
[4]
  GI50: 3.18 µM
  TGI: 6.82 µM
[5]
  GI50: 4.11 µM
  TGI: 14.4 µM
[9]
  GI50: 4.68 µM
  TGI: 17.1 µM
[7]
  GI50: 2.92 µM
  TGI: 7.55 µM
[10]
  GI50: 9.43 µM
  TGI: 21.3 µM

## CSC(=NC(=O)c1ccccc1Cl)SCCSC(=NC(=O)c1ccccc1Cl)SC
[1]
  TGI: > 100 µM
[8]
  TGI: > 100 µM
[2]
  TGI: > 100 µM
[3]
  TGI: > 100 µM
[4]
  TGI: > 100 µM
[5]
  TGI: > 100 µM
[6]
  TGI: > 100 µM
[7]
  TGI: > 100 µM
[10]
  TGI: > 100 µM

## CC(=O)OCc1c(O)c2c([nH]c1=O)CCc1ccccc1-2
[8]
  TGI: > 350 µM
[2]
  TGI: 297 µM
[3]
  TGI: > 350 µM
[4]
  TGI: 210 µM
[5]
  TGI: 112 µM
[6]
  TGI: 84.6 µM
[7]
  TGI: > 350 µM
[10]
  TGI: > 350 µM

## Cc1ccc(/C=C/C(=O)c2ccc(Cl)c(Cl)c2)cc1
[1]
  TGI: > 100 µM
[8]
  TGI: > 100 µM
[2]
  TGI: > 100 µM
[3]
  TGI: > 100 µM
[4]
  TGI: > 100 µM
[5]
  TGI: > 100 µM
[6]
  TGI: > 100 µM
[7]
  TGI: > 100 µM
[10]
  TGI: > 100 µM

## Cc1ccc(S(=O)(=O)ON2C(=O)c3cccc4cc([N+](=O)[O-])cc(c34)C2=O)cc1
[1]
  TGI: > 100 µM
[8]
  TGI: > 100 µM
[3]
  TGI: > 100 µM
[5]
  TGI: > 100 µM
[6]
  TGI: > 100 µM
[9]
  TGI: > 100 µM
[7]
  TGI: > 100 µM
[10]
  TGI: > 100 µM
